PubChem BioAssay (NCI)
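Assay format: 96-well plates, 48-hour exposure. TGI: concentration producing complete growth inhibition.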

How the values were obtained:
Assay in all cases: NCI tumour cell line growth inhibition, 48 h
[1] = tested on: COLO 205 colon
[2] = tested on: HCT-15 colon
[3] = tested on: SK-MEL-2 melanoma
[4] = tested on: A549 NSCLC
[5] = tested on: 786-0 renal
[6] = tested on: NCI-H23 lung
[7] = tested on: SNB-19 CNS
[8] = tested on: HCC-2998 colon
[9] = tested on: SK-MEL-5 melanoma
[10] = tested on: MOLT-4 leukemia
[11] = tested on: SF-539 CNS
[12] = tested on: HOP-92 NSCLC
[13] = tested on: MCF7 breast
[14] = tested on: SN12C renal
[15] = tested on: SK-MEL-28 melanoma
[16] = tested on: CAKI-1 renal
[17] = tested on: HOP-62 NSCLC
[18] = tested on: HL-60(TB) leukemia
[19] = tested on: TK-10 renal
[20] = tested on: MDA-N
[21] = tested on: UACC-257 melanoma
[22] = tested on: HS 578T breast
[23] = tested on: IGROV1 ovarian
[24] = tested on: EKVX NSCLC
[25] = tested on: OVCAR-4 ovarian
[26] = tested on: M14 melanoma
[27] = tested on: SW-620 colon
[28] = tested on: HCT-116 colon
[29] = tested on: MDA-MB-231 breast
[30] = tested on: SR leukemia
[31] = tested on: NCI/ADR-RES ovarian
[32] = tested on: OVCAR-8 ovarian
[33] = tested on: ACHN renal
[34] = tested on: K-562 leukemia
[35] = tested on: U251 CNS
[36] = tested on: RXF 393 renal
[37] = tested on: OVCAR-3 ovarian
[38] = tested on: RPMI-8226 leukemia
[39] = tested on: KM12 colon
[40] = tested on: UACC-62 melanoma
[41] = tested on: SF-295 CNS
[42] = tested on: UO-31 renal
[43] = tested on: NCI-H460 lung
[44] = tested on: OVCAR-5 ovarian
[45] = tested on: HT29 colon
[46] = tested on: BT-549 breast
[47] = tested on: PC-3 prostate
[48] = tested on: LOX IMVI melanoma
[49] = tested on: DU-145 prostate
[50] = tested on: NCI-H522 lung
[51] = tested on: NCI-H226 lung
[52] = tested on: MALME-3M melanoma
[53] = tested on: MDA-MB-435
[54] = tested on: A498 renal
[55] = tested on: SF-268 CNS
[56] = tested on: SK-OV-3 ovarian
[57] = tested on: CCRF-CEM leukemia

SMILES: CC(C)OC(=O)C1=C2c3ncccc3C(=O)N2[C@@H](Cl)[C@H](Cl)[C@H]1Cl
- TGI [1]: > 100 µM
- TGI [2]: > 100 µM
- TGI [3]: > 100 µM
- TGI [4]: > 100 µM
- TGI [5]: > 100 µM
- TGI [6]: > 100 µM
- TGI [7]: > 100 µM
- TGI [8]: > 100 µM
- TGI [9]: > 100 µM
- TGI [10]: > 100 µM
- TGI [11]: > 100 µM
- TGI [12]: > 100 µM
- TGI [13]: > 100 µM
- TGI [14]: 85.9 µM
- TGI [15]: > 100 µM
- TGI [16]: > 100 µM
- TGI [17]: > 100 µM
- TGI [18]: > 100 µM
- TGI [19]: > 100 µM
- TGI [20]: > 100 µM
- TGI [21]: > 100 µM
- TGI [22]: > 100 µM
- TGI [23]: > 100 µM
- TGI [24]: > 100 µM
- TGI [25]: > 100 µM
- TGI [26]: > 100 µM
- TGI [27]: > 100 µM
- TGI [28]: > 100 µM
- TGI [29]: > 100 µM
- TGI [30]: 93.8 µM
- TGI [31]: > 100 µM
- TGI [32]: > 100 µM
- TGI [33]: > 100 µM
- TGI [34]: > 100 µM
- TGI [35]: > 100 µM
- TGI [36]: > 100 µM
- TGI [37]: > 100 µM
- TGI [38]: > 100 µM
- TGI [39]: > 100 µM
- TGI [40]: > 100 µM
- TGI [41]: > 100 µM
- TGI [42]: > 100 µM
- TGI [43]: > 100 µM
- TGI [44]: > 100 µM
- TGI [45]: > 100 µM
- TGI [46]: > 100 µM
- TGI [47]: > 100 µM
- TGI [48]: > 100 µM
- TGI [49]: > 100 µM
- TGI [50]: > 100 µM
- TGI [51]: > 100 µM
- TGI [52]: > 100 µM
- TGI [53]: > 100 µM
- TGI [54]: > 100 µM
- TGI [55]: > 100 µM

SMILES: CC(=O)Nc1ccc(S(=O)(=O)Nc2nc(-c3ccc(Cl)cc3)cc(N3N=C(c4ccc(Br)cc4)CC3c3ccccc3)n2)cc1 (configuration not stated)
- TGI [1]: 27.1 µM
- TGI [2]: 31.9 µM
- TGI [3]: 30.5 µM
- TGI [4]: 31.5 µM
- TGI [5]: 44 µM
- TGI [6]: 41.2 µM
- TGI [56]: 29.9 µM
- TGI [7]: 33.8 µM
- TGI [10]: 39.5 µM
- TGI [11]: 31.1 µM
- TGI [12]: 32.4 µM
- TGI [13]: 16.6 µM
- TGI [14]: 32.3 µM
- TGI [15]: 35.1 µM
- TGI [17]: 35.3 µM
- TGI [18]: 38.1 µM
- TGI [19]: 33.5 µM
- TGI [20]: 29.8 µM
- TGI [21]: 37.3 µM
- TGI [22]: 31 µM
- TGI [23]: 24.1 µM
- TGI [24]: 26.5 µM
- TGI [25]: 30 µM
- TGI [26]: 43 µM
- TGI [27]: 52.5 µM
- TGI [28]: 42.7 µM
- TGI [29]: 28.6 µM
- TGI [30]: 56.6 µM
- TGI [31]: 34.4 µM
- TGI [32]: 33.3 µM
- TGI [33]: 58.3 µM
- TGI [34]: 23.3 µM
- TGI [35]: 32.1 µM
- TGI [36]: 39.7 µM
- TGI [37]: 8.46 µM
- TGI [38]: 37.5 µM
- TGI [39]: 40.4 µM
- TGI [40]: 25.2 µM
- TGI [41]: 31.5 µM
- TGI [42]: 30.5 µM
- TGI [43]: 44.3 µM
- TGI [44]: 27.8 µM
- TGI [45]: 28.3 µM
- TGI [46]: 34 µM
- TGI [47]: 36.1 µM
- TGI [48]: 29.5 µM
- TGI [49]: 62.4 µM
- TGI [50]: 31 µM
- TGI [51]: 31.8 µM
- TGI [52]: 40.7 µM
- TGI [53]: 19.6 µM
- TGI [57]: 90.3 µM
